Assay results from patent publication US20260209203A1, “Heterocyclic Compounds as Modulators of S1P5” (Celgene Corporation, priority 2022, published 2026).

Target: S1P5 (Homo sapiens, UniProt Q9H228)
Experiment: [35S]-GTPγS functional binding assay on CHO-S1P5 membranes
Format: biochemical
Conditions: membranes of CHO cells expressing recombinant S1P5; measure of S1P5 agonism
Protocol: CHO cells expressing recombinant S1P5 receptors were cultured in 500 cm^2 culture trays and, once confluent, rinsed and detached with cell-lifting buffer (10 mM HEPES, 154 mM NaCl, 6.85 mM EDTA, pH 7.4). Cells were then pelleted by centrifugation, resuspended, and homogenized in membrane preparation buffer (10 mM HEPES and 10 mM EDTA, pH 7.4) using a Polytron PT 1200E homogenizer (Kinematica, Luzern, Switzerland). Cellular proteins were pelleted by centrifugation at 48,000×g at 4° C. for 30 minutes. The resulting supernatant was discarded, and the pellet was re-suspended again in membrane preparation buffer, homogenized for a second time, and then centrifuged again as described above. The final cellular protein pellet was suspended in ice cold resuspension buffer (10 mM HEPES and 0.1 mM EDTA, pH 7.4), divided into aliquots, and stored at −80° C. until use.
Functional binding assays for [^35S]-GTPγS were performed in 96-well non-binding surface plates with a final volume of 200 μL. The test compounds were serially diluted in DMSO and added to assay plates using a Tecan D300E digital printer with a total volume of 0.4 μL. The control sphingosine-1-phosphate (S1P) was prepared separately by preparing a 400 μM stock solution from a 100 nmol pellet of SIP in 10 mM Na2CO3 with 2% β-cyclodextrin. The serial dilution of S1P was done using complete assay buffer (20 mM HEPES, 10 mM MgCl2, 100 mM NaCl, 1 mM EDTA, 0.1% fatty acid free bovine serum albumin (BSA), and 30 μg/mL saponin, pH 7.4) and transferred to wells already containing 0.4 μL DMSO. All the wells were then loaded to a total volume of 40 μL of complete assay buffer, except the non-specific binding (NSB) wells. For NSB wells, 40 μL/well of 50 μM GTPγS (Sigma Aldrich, cat #G8634, St. Louis, MO) was added to wells containing 0.4 μL of DMSO. The assay was started by the addition of 120 μL/well of CHO—S1P receptor membrane solution containing 40 μg/mL of membrane protein, 16.67 μM guanosine diphosphate (GDP; Sigma Aldrich, cat #G7127, St. Louis, MO), and 2.5 mg/mL of WGA PVT SPA beads in complete buffer. Assay plates were then sealed and incubated at room temperature with gentle agitation for 30 minutes. Next, 40 μL/well of 1 nM of [^35S]-GTPγS (PerkinElmer, cat #NEG030X250UC, Waltham, MA) in basic assay buffer (20 mM HEPES, 10 mM MgCl2, 100 mM NaCl, and 1 mM EDTA, pH7.4) was added to the assay plates to yield a final concentration of 200 pM and the plates were further incubated for 40 minutes at room temperature with gentle agitation. The assay was terminated by centrifugation of the plates at 1000 rpm for 3 minutes using an Eppendorf 5810R centrifuge (Eppendorf, Hamburg, Germany) and G protein bound radioactivity was quantitated using a MicroBeta2 microplate scintillation counter (PerkinElmer, Waltham, MA). As G protein bound radioactivity directly correlates to receptor activation and coupling to the G protein, this assay is a measure of S1P5 agonism.

S1P5, sequence (Q9H228 whole entry, species assumed): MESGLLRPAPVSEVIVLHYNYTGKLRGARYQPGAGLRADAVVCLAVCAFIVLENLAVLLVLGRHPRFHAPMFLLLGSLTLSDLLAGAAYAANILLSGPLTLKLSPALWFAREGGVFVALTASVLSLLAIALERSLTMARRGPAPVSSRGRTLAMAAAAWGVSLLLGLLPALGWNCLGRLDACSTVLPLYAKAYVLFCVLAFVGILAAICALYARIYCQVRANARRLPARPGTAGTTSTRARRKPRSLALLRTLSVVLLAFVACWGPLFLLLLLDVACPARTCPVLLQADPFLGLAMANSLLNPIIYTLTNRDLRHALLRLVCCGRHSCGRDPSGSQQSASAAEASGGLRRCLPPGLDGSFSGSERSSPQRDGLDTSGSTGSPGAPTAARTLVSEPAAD

SMILES | EC50
CNC(=O)C1CCN(Cc2c(C)cc(C3CN(c4c(Cl)cccc4Cl)C3)cc2C)CC1 [Compound 1, 1-(4-(1-(2,6-dichlorophenyl)-azetidin-3-yl)-2,6-dimethyl-benzyl)-N-methylpiperidine-4-carboxamide] | 0.001 to 0.01 µM
Cc1cc(C2CN(c3c(Cl)cccc3Cl)C2)cc(C)c1CN1CCC(C(=O)N(C)C)CC1 [Compound 2, 1-(4-(1-(2,6-dichlorophenyl)-azetidin-3-yl)-2,6-dimethyl-benzyl)-N,N-dimethylpiper-idine-4-carboxamide] | 0.001 to 0.01 µM
COCCNC(=O)C1CCN(Cc2c(C)cc(C3CN(c4c(Cl)cccc4Cl)C3)cc2C)CC1 [Compound 3, 1-(4-(1-(2,6-dichlorophenyl)-azetidin-3-yl)-2,6-dimethyl-benzyl)-N-(2-methoxyethyl)-piperidine-4-carboxamide] | 0.001 to 0.01 µM
Cc1cc(C2CN(c3c(Cl)cccc3Cl)C2)cc(C)c1CN1CCC(C(=O)NC2CC2)CC1 [Compound 4, N-cyclopropyl-1-(4-(1-(2,6-dichlorophenyl)-azetidin-3-yl)-2,6-dimethylbenzyl)-piperidine-4-carboxamide] | 0.01 to 0.1 µM
Cc1cc(C2CN(c3c(Cl)cccc3Cl)C2)cc(C)c1CN1CCC(C(=O)NCC2CC2)CC1 [Compound 5, N-(cyclopropylmethyl)-1-(4-(1-(2,6-dichlorophenyl)-azetidin-3-yl)-2,6-dimethyl-benzyl)piperidine-4-carbox-amide] | 0.01 to 0.1 µM
Cc1cc(C2CN(c3c(Cl)cccc3Cl)C2)cc(C)c1CN1CCC(C(=O)NC2CCC2)CC1 [Compound 6, N-cyclobutyl-1-(4-(1-(2,6-dichlorophenyl)azetidin-3-yl)-2,6-dimethylbenzyl)-piperidine-4-carboxamide] | 0.01 to 0.1 µM
Cc1cc(C2CN(c3c(Cl)cccc3Cl)C2)cc(C)c1CN1CCC(C(=O)NC2CCC(O)CC2)CC1 (centres unmarked) [Compound 7, 1-(4-(1-(2,6-dichlorophenyl)-azetidin-3-yl)-2,6-dimethyl-benzyl)-N-(4-hydroxycyclo-hexyl)-piperidine-4-carbox-amide] | 0.1 to 1 µM
Cc1cc(C2CN(c3c(Cl)cccc3Cl)C2)cc(C)c1CN1CCC(C(=O)N2CCN(C)CC2)CC1 [Compound 8, (1-(4-(1-(2,6-dichlorophen-yl)azetidin-3-yl)-2,6-dimeth-ylbenzyl)-piperidin-4-yl)(4-methyl-piperazin-1-yl)-methanone] | 0.1 to 1 µM
Cc1cc(C2CN(c3c(Cl)cccc3Cl)C2)cc(C)c1CN1CCC(C(=O)N2CCOCC2)CC1 [Compound 9, (1-(4-(1-(2,6-dichlorophen-yl)azetidin-3-yl)-2,6-dimeth-ylbenzyl)-piperidin-4-yl)-(morpholino)methanone] | 0.1 to 1 µM
Cc1cc(C2CN(c3c(Cl)cccc3Cl)C2)cc(C)c1CN1CCC(C(=O)NCC(C)C)CC1 [Compound 10, 1-(4-(1-(2,6-dichlorophenyl)-azetidin-3-yl)-2,6-dimethyl-benzyl)-N-isobutylpiperidine-4-carboxamide] | 0.1 to 1 µM
Cc1cc(C2CN(c3c(Cl)cccc3Cl)C2)cc(C)c1CN1CCC(C(=O)N(C)CCO)CC1 [Compound 11, 1-(4-(1-(2,6-dichlorophenyl)-azetidin-3-yl)-2,6-dimethyl-benzyl)-N-(2-hydroxyethyl)-N-methylpiperidine-4-carbox-amide] | 0.1 to 1 µM
Cc1cc(C2CN(c3c(Cl)cccc3Cl)C2)cc(C)c1CN1CCC(C(=O)N2CCC(O)CC2)CC1 [Compound 12, (1-(4-(1-(2,6-dichlorophenyl)-azetidin-3-yl)-2,6-dimethyl-benzyl)-piperidin-4-yl)(4-hydroxy-piperidin-1-yl)-methanone] | 0.1 to 1 µM
Cc1cc(C2CN(c3c(Cl)cccc3Cl)C2)cc(C)c1CN1CCC(C(=O)N(C)CCN(C)C)CC1 [Compound 13, 1-(4-(1-(2,6-dichlorophenyl)-azetidin-3-yl)-2,6-dimethyl-benzyl)-N-(2-(dimethyl-amino)ethyl)-N-methylpiper-idine-4-carboxamide] | 0.1 to 1 µM
COC1CCN(C(=O)C2CCN(Cc3c(C)cc(C4CN(c5c(Cl)cccc5Cl)C4)cc3C)CC2)CC1 [Compound 14, (1-(4-(1-(2,6-dichlorophenyl)-azetidin-3-yl)-2,6-dimethyl-benzyl)-piperidin-4-yl)(4-methoxy-piperidin-1-yl)-methanone] | 0.1 to 1 µM
Cc1cc(C2CN(c3c(Cl)cccc3Cl)C2)cc(C)c1CN1CCC(C(=O)NC2CCCC2)CC1 [Compound 15, N-cyclopentyl-1-(4-(1-(2,6-dichlorophenyl)-azetidin-3-yl)-2,6-dimethylbenzyl)-piperidine-4-carboxamide] | 1 to 10 µM
Cc1cc(C2CN(c3c(Cl)cccc3Cl)C2)cc(C)c1CN1CCC(C(=O)N(C)C(C)C)CC1 [Compound 16, 1-(4-(1-(2,6-dichlorophenyl)-azetidin-3-yl)-2,6-dimethyl-benzyl)-N-isopropyl-N-meth-yl-piperidine-4-carboxamide] | 1 to 10 µM
Cc1cc(C2CN(c3c(Cl)cccc3Cl)C2)cc(C)c1CN1CCC(C(=O)NC2CCCCC2)CC1 [Compound 17, N-cyclohexyl-1-(4-(1-(2,6-dichlorophenyl)azetidin-3-yl)-2,6-dimethylbenzyl)-piperidine-4-carboxamide] | 1 to 10 µM
Cc1cc(C2CN(c3c(Cl)cccc3Cl)C2)cc(C)c1CN1CCC(C(=O)NCC2CCCCC2)CC1 [Compound 18, N-(cyclohexylmethyl)-1-(4-(1-(2,6-dichlorophenyl)-azetidin-3-yl)-2,6-dimethyl-benzyl)piperidine-4-carbox-amide] | 1 to 10 µM
Cc1cc(C2CN(c3c(Cl)cccc3Cl)C2)cc(C)c1CN1CCC(C(=O)NCCN2CCCC2)CC1 [Compound 19, 1-(4-(1-(2,6-dichlorophenyl)-azetidin-3-yl)-2,6-dimethyl-benzyl)-N-(2-(pyrrolidin-1-yl)ethyl)-piperidine-4-carbox-amide] | 1 to 10 µM
Cc1cc(C2CN(c3c(Cl)cccc3Cl)C2)cc(C)c1CN1CCC(C(=O)NC2CCC(N(C)C)CC2)CC1 (centres unmarked) [Compound 20, 1-(4-(1-(2,6-dichlorophenyl)-azetidin-3-yl)-2,6-dimethyl-benzyl)-N-(4-(dimethyl-amino)-cyclohexyl)piper-idine-4-carboxamide] | 1 to 10 µM
Cc1cc(C2CN(c3c(Cl)cccc3Cl)C2)cc(C)c1CN1CCC(C(=O)NCCC(C)C)CC1 [Compound 21, 1-(4-(1-(2,6-dichlorophenyl)-azetidin-3-yl)-2,6-dimethyl-benzyl)-N-isopentyl-piper-idine-4-carboxamide] | 1 to 10 µM
Cc1cc(C2CN(c3c(Cl)cccc3Cl)C2)cc(C)c1CN1CCC(C(=O)N2CCC(N(C)C)CC2)CC1 [Compound 22, (1-(4-(1-(2,6-dichlorophenyl)-azetidin-3-yl)-2,6-dimethyl-benzyl)piperidin-4-yl)(4-(dimethylamino)piperidin-1-yl)methanone] | 1 to 10 µM
Cc1cc(C2CN(c3c(Cl)cccc3Cl)C2)cc(C)c1CN1CCC(C(=O)N(C)CC(C)C)CC1 [Compound 23, 1-(4-(1-(2,6-dichlorophenyl)-azetidin-3-yl)-2,6-dimethyl-benzyl)-N-isobutyl-N-meth-ylpiperidine-4-carboxamide] | 1 to 10 µM
Cc1cc(C2CN(c3c(Cl)cccc3Cl)C2)cc(C)c1CN1CCC(C(=O)N2CCC(O)C2)CC1 (centres unmarked) [Compound 24, (1-(4-(1-(2,6-dichlorophenyl)-azetidin-3-yl)-2,6-dimethyl-benzyl)-piperidin-4-yl)(3-hydroxypyrrolidin-1-yl)-methanone] | 1 to 10 µM
Cc1cc(C2CN(c3c(Cl)cccc3Cl)C2)cc(C)c1CN1CCC(C(=O)N(C)C2CC2)CC1 [Compound 25, N-cyclopropyl-1-(4-(1-(2,6-dichlorophenyl)-azetidin-3-yl)-2,6-dimethylbenzyl)-N-methylpiperidine-4-carbox-amide] | 1 to 10 µM
Cc1cc(C2CN(c3c(Cl)cccc3Cl)C2)cc(C)c1CN1CCC(C(=O)N2CCCCC2)CC1 [Compound 26, (1-(4-(1-(2,6-dichlorophenyl)-azetidin-3-yl)-2,6-dimethyl-benzyl)-piperidin-4-yl)(piper-idin-1-yl)methanone] | 1 to 10 µM
